The source of these data is the METLIN SMRT retention time set (Domingo-Almenara et al. 2019).

Structures are written as SMILES.

This series can be described thus: gradient 5% acetonitrile 3 min, to 50% in 2 min, to 85% in 15 min, held 3 min, 100 µL/min. The note with it: column: Zorbax Extend-C18 2.1 x 50 mm; eluents: water / acetonitrile, 0.1% formic acid. In outline:
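Data were gathered over 3 months by HPLC coupled to a quadrupole time-of-flight mass spectrometer, operated in positive and negative ionization mode. Mixtures of ~100 pure standards ran on a Zorbax Extend-C18 column (2.1 × 50 mm, 1.8 μm) at 100 μL/min, with water and acetonitrile each containing 0.1% formic acid and dead and dwell volumes of 40 μL and 900 μL. Retention time was read from adduct peaks picked by computer and checked manually.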
`Cc1nc(C2(C)CCN(S(=O)(=O)c3ccccc3C(F)(F)F)CC2)no1` came in with an RP-LC retention time of 963 s.

`COC(=O)c1c(C)[nH]c(C(=O)N2CCC(CC(=O)N3CCN(c4ccccc4)CC3)CC2)c1C` yielded an RP-LC retention time of 775 s.

Regarding `CCOc1ccccc1-c1noc(-c2nc(C)no2)n1`, the RP-LC retention time was 986 s.

The compound `CCNC(=O)c1cc(C)nc2ccc(Cl)cc12` displayed an RP-LC retention time of 649 s.

In turn, `COC(=O)CC1=CC(SCC(=O)N2CCC(C)CC2)=Nc2ccccc2N1` had an RP-LC retention time of 1000 s.

In turn, `Cc1ccc(-c2csc(Cc3nc(-c4cccc(F)c4)no3)n2)cc1` displayed an RP-LC retention time of 1270 s.

The compound `CNC1(C)[C@H]2CC[C@H](C2)C1(C)C` (some centres undefined) displayed an RP-LC retention time of 606 s.

In turn, `Cn1c(=O)c(F)c(Nc2ccc(I)cc2F)c2c(=O)n(C[C@@H](O)CO)cnc21` displayed an RP-LC retention time of 756 s.

Turning to `CCC(=O)Nc1ccc(-n2cnc(C(=O)NCc3ccc(C)c(C)c3)c2)nc1`, the RP-LC retention time stood at 791 s.

`CCN1CCC(O)(/C=C/c2ccc(C)cc2)C(C(=O)/C=C/c2ccc(C)cc2)C1` (centres undefined): the RP-LC retention time was found to be 767 s.

As to `COc1c2c(cc3c1OCO3)CCN(C)C2`, the RP-LC retention time worked out at 598 s.

With `O=C(c1nnc(-c2ccc(S(=O)(=O)N3CCCCC3)cc2)o1)N1CCN(c2ccccc2)CC1`, the RP-LC retention time is 1080 s.

As for `N#Cc1ccc(-c2nc(-c3ccc4c(c3)nnn4CCN3CCCCC3)no2)cc1`, the RP-LC retention time is 676 s.

The compound `Cc1ccc(Nc2c(-c3cc(Br)ccc3O)nc3ncccn23)c(C)c1` displayed an RP-LC retention time of 1120 s.

Consider `COc1ccc(OC)c(NC(=O)N2CCC3(CC2)Nc2ccccc2-n2cccc23)c1`, for which the RP-LC retention time turned out to be 1040 s.

`O=C(Nc1ccc(Cl)cc1)N1CCN(CCn2cnc3cccnc32)CC1` returned an RP-LC retention time of 604 s.

Consider `CCCn1cnc2cc(CNC(=O)c3cc4cc(Cl)ccc4[nH]3)ccc21`, for which the RP-LC retention time was found to be 720 s.

`O=C(c1ccoc1)N1CCN(c2cc(-c3ccccc3)[nH]n2)CC1` had an RP-LC retention time of 698 s.

`Cc1ccccc1-c1noc(Cn2ccn3nc(-c4ccc5c(c4)OCO5)cc3c2=O)n1` had an RP-LC retention time of 1040 s.

In turn, `Cc1noc(-c2ccnc(-n3ncc(C(=O)N4CCN(Cc5ccccc5)CC4)c3C)c2)n1` gave an RP-LC retention time of 645 s.

`CCc1ccc2c(c1)-c1ccccc1S(=O)(=O)N2CC(=O)NCc1ccccn1`: the RP-LC retention time amounted to 720 s.

In turn, `COc1ccccc1-c1nc2cnccn2c1NCCC(=O)NC1CCCCC1` returned an RP-LC retention time of 673 s.

`COC(=O)c1c(NCCc2cccs2)c2cccc(Cl)c2[nH]c1=O` gave an RP-LC retention time of 823 s.

Compound `COc1cccc(NC(=O)N2CCc3c(c(-c4nnc(-c5ccc(F)cc5)o4)nn3C)C2)c1` displayed an RP-LC retention time of 833 s.

Consider `COc1ncccc1CNS(=O)(=O)c1ccc(C)cc1`, for which the RP-LC retention time was 817 s.

In the case of `COc1ccc(OC)c(NC(=O)c2ccc3nc(-c4ccccc4)cn3c2)c1`, the RP-LC retention time stood at 762 s.

In the case of `CC(=O)N1c2ccc(S(=O)(=O)N3CCCCC3)cc2CC1C(=O)Nc1ccc(C)c(C)c1` (centres undefined), the RP-LC retention time worked out at 966 s.

In turn, `CSc1nnc(-c2nn(C)c3c2CN(C(=O)c2ccccc2F)CC3)n1C` displayed an RP-LC retention time of 697 s.

`COc1ccc(OCc2nn3c(-c4ccc(OC)c(OC)c4)nnc3s2)cc1` gave an RP-LC retention time of 867 s.

`Cc1nn(-c2nc(CC(=O)Nc3nc(-c4ccccc4)cs3)cs2)c(C)c1Cc1ccccc1` registered an RP-LC retention time of 1380 s.

`CN(C)C[C@@H]1CN(Cc2ccccc2)C[C@H]1NS(=O)(=O)c1ccc(C#N)cc1`: the RP-LC retention time came to 562 s.

As for `CCc1nc2cc(-c3noc(-c4ccnn4C)n3)ccc2o1`, the RP-LC retention time came to 971 s.

In turn, `Cc1nn(-c2ccc(F)cc2)c(-n2cccc2)c1C(=O)N1CCN(c2ccccn2)CC1` displayed an RP-LC retention time of 650 s.

With `Cc1ccc(CNC(=O)C2(C)CN(S(C)(=O)=O)CC(=O)N2CCC(C)C)cc1` (centres undefined), the RP-LC retention time stood at 865 s.

Compound `Cc1nn(-c2nc(-c3ccc(F)cc3)cs2)c(C)c1CC(=O)Nc1cccc(C(F)(F)F)c1` gave an RP-LC retention time of 1280 s.

Turning to `O=C(C1CCN(S(=O)(=O)c2ccc3[nH]c(=O)ccc3c2)CC1)N1CCN(c2ccccc2)CC1`, the RP-LC retention time was 735 s.

In turn, `Cc1ccc(NC(=O)Nc2c(-c3ccc(F)cc3)nc3ccccn23)cc1C` displayed an RP-LC retention time of 714 s.

As to `CCCOC(=O)c1ccc(Nc2nc(C(=O)OCC)nc3ccccc23)cc1`, the RP-LC retention time is 1020 s.

In the case of `COc1ccccc1C(=O)Nc1nc(-c2ccc3c(c2)NC(=O)C(C)O3)cs1` (centres undefined), the RP-LC retention time was determined as 924 s.

Take `O=C(NCc1cccnc1)c1nnc(-c2ccc(S(=O)(=O)N3CCCC3)cc2)o1`: the RP-LC retention time amounted to 616 s.

The compound `CCCc1nnsc1C(=O)NCC(c1cccs1)S(=O)(=O)c1ccc(C)cc1` (centres undefined) showed an RP-LC retention time of 921 s.

For the compound `Cc1c(NS(C)(=O)=O)cccc1-c1nc2cccnc2s1`, the RP-LC retention time was determined as 682 s.

Consider `COc1ccc(-c2noc(C3CCCN3C(=O)c3ccccc3F)n2)cc1` (centres undefined), for which the RP-LC retention time was 952 s.

Regarding `O=C(c1ccc[nH]1)N1CCN(C(=O)c2nnn3c2COC(c2ccc(Cl)cc2)C3)CC1` (centres undefined), the RP-LC retention time came to 839 s.

`O=C(Cc1cccs1)N1CCC(c2nnc(C(F)(F)F)o2)CC1` registered an RP-LC retention time of 752 s.

Consider `Cn1nnnc1C1CCCN(C(=O)C2CCC2)C1` (centres undefined), for which the RP-LC retention time worked out at 636 s.

`COc1ccc(OC)c(NS(=O)(=O)c2cc3c(s2)CCN(C(=O)C2CC2)C3)c1` showed an RP-LC retention time of 821 s.

Compound `CCCc1cc(N2CCN(C(=O)c3ccc4c(c3)OCO4)CC2)nc2nnc(CC)n12` displayed an RP-LC retention time of 650 s.

The compound `CCN(CC)S(=O)(=O)c1cc(-c2nnc(-c3ccccc3)o2)ccc1C` registered an RP-LC retention time of 1080 s.

As for `CC1(C)CC(=O)c2cn(-c3ccccc3)c(=O)c(C(=O)Nc3ccc(Cl)cn3)c2C1`, the RP-LC retention time was determined as 1050 s.

Compound `Cn1ccnc1SCC(=O)Nc1nc(-c2ccc(Cl)cc2)cs1` yielded an RP-LC retention time of 690 s.

Compound `O=c1c2cnc3nc(-c4ccc(Cl)cc4)nn3c2ccn1CCCO` registered an RP-LC retention time of 714 s.

With `COC(=O)CC1=CC(SCC(=O)Nc2ccc(Cl)cc2F)=Nc2ccccc2N1`, the RP-LC retention time is 910 s.

The compound `Cc1nnc([C@@H]2CC(F)(F)CN2C(=O)c2nn(C)c3ccccc23)o1` showed an RP-LC retention time of 788 s.

Take `COc1cc2c(cc1OC)[C@@H](C(=O)N(C)c1ccc(Cl)cc1)[C@@H]1CCCCN1C2=O`: the RP-LC retention time amounted to 719 s.

As to `CC(C)N1C(=O)c2cccnc2Sc2cc(NC(=O)c3ccco3)ccc21`, the RP-LC retention time came out at 776 s.

Compound `CC1CCN(C(=O)C2CCc3sc(C(=O)N(C)C)cc3C2)CC1` (centres undefined) yielded an RP-LC retention time of 717 s.

`Cn1c(=O)c(N2CCC(NC(=O)NCc3ccc(F)cc3)CC2)nc2cccnc21` registered an RP-LC retention time of 771 s.

Consider `CCN1C(=O)COc2ccc(-c3nc(NC(=O)C(C)C)sc3C)cc21`, for which the RP-LC retention time amounted to 909 s.

Regarding `O=C(O)Cc1csc(NC(=O)C2CCC(=O)N2)n1` (centres undefined), the RP-LC retention time came to 528 s.

Compound `Cc1cc(N2CCN(C(=O)CCc3c[nH]c4ccccc34)CC2)nc2ccccc12` returned an RP-LC retention time of 584 s.

The compound `Cn1ncc2c(N3CCSCC3)nc(C(=O)NCc3ccc(F)cc3)nc21` showed an RP-LC retention time of 823 s.

Consider `CCc1ccc(-c2noc(CN3C(=O)COc4cc(C)ccc43)n2)cc1`, for which the RP-LC retention time was determined as 1170 s.

Compound `COc1ccccc1CC(=O)Nc1cnc(-c2cccnc2)nc1` had an RP-LC retention time of 663 s.

`CC(C)CCNC(=O)C1(C)Cn2nc(C(=O)NCc3ccccc3)cc2C(=O)N1C` (centres undefined) registered an RP-LC retention time of 712 s.

Consider `CCn1cc(S(=O)(=O)N2CCCC2c2nncn2Cc2ccncc2)cn1` (centres undefined), for which the RP-LC retention time was 553 s.

The compound `CCn1nccc1C(=O)N1CC(Oc2cccc(-c3nc(C)no3)c2)C1` registered an RP-LC retention time of 811 s.

Regarding `COc1ccccc1-c1nc(Cn2ccn3nc(-c4ccc5c(c4)OCO5)cc3c2=O)c(C)o1`, the RP-LC retention time amounted to 960 s.

On to `Cc1ccc(Nc2nc(-c3ccc(C)cc3)c(CC(=O)O)s2)cc1`, for which the RP-LC retention time was determined as 946 s.

The compound `CCOC(=O)c1c(S(=O)(=O)N2CC=C(c3ccccc3)CC2)n[nH]c1CC` showed an RP-LC retention time of 927 s.

For `CCOC(=O)c1c(CN2CCCC2)n(C)c2cc(-c3ccncc3)c3c(c12)CN(C)CO3`, the RP-LC retention time was 730 s.

The compound `CCN1C=C(C(=O)OCc2ccccc2)C(C)=NS1(=O)=O` returned an RP-LC retention time of 958 s.

`CN1C(=O)c2cccnc2Sc2cc(C(=O)NCc3ccc(Cl)cc3)ccc21` showed an RP-LC retention time of 812 s.

Compound `Cc1ccc(F)cc1NC(=O)c1cnc(-c2ccc(F)cc2)nc1-c1ccncc1` showed an RP-LC retention time of 1060 s.

In turn, `COc1cccc(C(=O)Nc2ccc3c(c2)Sc2ncccc2C(=O)N3C(C)C)c1OC` gave an RP-LC retention time of 915 s.

For the compound `CSc1ccccc1NC(=O)C(=O)NCC(C)(O)c1ccco1` (centres undefined), the RP-LC retention time came out at 995 s.

`O=C(NCc1ccccn1)C1CCc2sc(C(=O)N3CCCC3)cc2C1` (centres undefined) registered an RP-LC retention time of 518 s.

`Cn1c(N2CCCC(C(=O)NCc3ccccc3)C2)cc(=O)n(C)c1=O` (centres undefined): the RP-LC retention time was found to be 662 s.

Take `CCOC(=O)c1ccc(NC(=O)CCc2ccc3nc(CC)[nH]c3c2)cc1`: the RP-LC retention time turned out to be 646 s.
